From US20080255168A1, “METHODS FOR ADMINISTERING DPD INHIBITORS IN COMBINATION WITH 5-FU AND 5-FU PRODRUGS” (ADHEREX TECHNOLOGIES, INC., priority 2004, published 2008)
Read-outs that look alike come from different tables or passages of the source.

Key:
DPD = biological target: T1, DPD (Homo sapiens, UniProt Q12882); conditions: cancer patients, cited from earlier work
T1 construct: 24 hours after one dose of eniluracil, the level of DPD was only 3% of the predose level; host or cells: cancer patients
T1 sequence (Q12882 4-1025): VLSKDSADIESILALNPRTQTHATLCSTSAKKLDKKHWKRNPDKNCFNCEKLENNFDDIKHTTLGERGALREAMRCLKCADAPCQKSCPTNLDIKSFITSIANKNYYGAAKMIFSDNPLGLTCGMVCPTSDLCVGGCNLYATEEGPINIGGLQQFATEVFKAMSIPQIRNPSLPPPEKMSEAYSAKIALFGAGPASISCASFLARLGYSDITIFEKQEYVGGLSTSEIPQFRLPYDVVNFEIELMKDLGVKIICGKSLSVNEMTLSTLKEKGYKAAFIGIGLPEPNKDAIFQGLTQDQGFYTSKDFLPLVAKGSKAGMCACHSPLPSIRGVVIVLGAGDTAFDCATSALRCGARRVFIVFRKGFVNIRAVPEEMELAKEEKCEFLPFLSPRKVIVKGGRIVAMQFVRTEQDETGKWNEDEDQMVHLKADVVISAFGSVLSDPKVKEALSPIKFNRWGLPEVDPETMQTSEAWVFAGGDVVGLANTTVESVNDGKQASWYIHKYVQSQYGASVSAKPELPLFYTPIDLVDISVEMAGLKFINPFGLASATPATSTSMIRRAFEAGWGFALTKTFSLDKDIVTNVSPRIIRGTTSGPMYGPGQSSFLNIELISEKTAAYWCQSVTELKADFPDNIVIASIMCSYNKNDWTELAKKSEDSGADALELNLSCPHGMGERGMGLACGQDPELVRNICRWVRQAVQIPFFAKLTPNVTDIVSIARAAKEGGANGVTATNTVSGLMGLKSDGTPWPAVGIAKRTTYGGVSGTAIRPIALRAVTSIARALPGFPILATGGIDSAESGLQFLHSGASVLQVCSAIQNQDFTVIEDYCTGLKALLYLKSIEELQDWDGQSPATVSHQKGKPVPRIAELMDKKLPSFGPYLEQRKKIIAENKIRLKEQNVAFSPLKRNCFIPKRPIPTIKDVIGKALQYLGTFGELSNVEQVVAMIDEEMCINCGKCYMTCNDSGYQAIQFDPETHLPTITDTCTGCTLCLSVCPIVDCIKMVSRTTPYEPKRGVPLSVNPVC

[1] = Plasma uridine levels after eniluracil, LC-MS; format: in vivo; conditions: mice, eniluracil 2, 25 and 100 mg/kg, FIG. 2
Description: While eniluracil inhibition is known to cause an increase in uracil levels due to DPD inhibition, inhibitory effects on other enzymes that anabolize fluoropyrimidines would be expected to quantitatively alter the levels of other anabolites, such as uridine. Eniluracil was administered to mice at 2 mg/kg, 25 mg/kg and 100 mg/kg. Plasma samples were taken at 0 minutes, 15 minutes, 30 minutes, 60 minutes, 2 hours, 24 hours and 48 hours. Uridine levels were determined by LC-MS technology using known techniques and standards were used to validate the assay.

[2] = cited from earlier work
[3] = system: EpiDerm™ skin model (normal, human-derived epidermal keratinocytes); experiment: EpiDerm skin model dermal irritation, MTT conversion assay (ET50); format: cell-based
Source text: The EpiDerm™ skin model system (MatTek) was used to assess the potential dermal irritation of eniluracil alone or its formulation. This system consists of normal, human-derived epidermal keratinocytes (NHEK) which have been cultured to form a multilayered, highly differentiated model of the human epidermis. […] The EpiDerm™ system is mitotically and metabolically active. Markers of mature epidermis-specific differentiation such as pro-filaggrin, the K1/K10 cytokeratin pair, involucrin, and type I epidermal transglutaminase have been localized in the model. […] The duration of exposure resulting in a 50% decrease in MTT conversion in test article-treated EpiDerm™ cultures, relative to control cultures, was determined (ET50). Eniluracil was prepared and administered to the test system at the three final concentrations of 1000 μM, 500 μM, and 100 μM, and tested at three exposure times of 8, 20, and 24 hours. The DMSO solvent control was tested at exposure times of 8 and 24 hours. The negative control was tested at exposure times of 4 and 24 hours, and the positive control was tested at exposure times of 4 and 8 hours. The results of the trial, presented in Table 1, confirmed that the three doses of eniluracil were well-tolerated by the EpiDerm™ skin model at topical exposures of up to 24 hours. […] Hydrochloric acid in an amount equivalent to the sodium hydroxide was added to neutralize the ointment. The exposure time control was also exposed in duplicate for 4 and 24 hours. Table 2 below summarizes the ET50 results of the EpiDerm™ assay for the test articles and the positive control, using the negative control results to determine the relative viability.

HEK 293 cells [4] = experiment: [6-14C]-FUMP anabolite formation from [6-14C]-5-FU in HEK 293 cells, reverse phase HPLC; format: cell-based; conditions: eniluracil 10 μM 1 hour, 48 hour washout, then [6-14C]-5-FU 66 μM 2 hours
Description: (§1) HEK 293 cells were initially treated with eniluracil (10 μM) for 1 hour. After a washout period ranging from 4-48 hours, cells were treated with [6-^14C]-5-FU (66 μM) for 2 hours at 37 degrees C. Controls were HEK 293 cells treated for 2 hours either with [6-^14C]-5-FU (66 μM) alone, or with eniluracil (10 μM) and [6-^14C]-5-FU (66 μM) co-administered together without preincubation. Reverse phase HPLC with radioactivity detection was utilized to quantify [6-^14C]-5-FU catabolites/anabolites present in cell lysates. In a separate set of experiments cytotoxicity of 5-FU at different eniluracil dose schedules was examined. HEK 293 cells were treated with a range of 5-FU concentrations for 72 hours at 37 degrees C. following 1 hour eniluracil (5 μM) preincubation, without eniluracil, or with eniluracil (5 μM) co-administered without preincubation. Cytotoxicity was assessed by the MTS proliferation assay and the EC50 values for 5-FU calculated.

Ward carcinoma tumors = experiment: Antitumor activity in rats bearing Ward carcinoma tumors; format: in vivo; conditions: for Ward carcinoma tumor response: once per week for three weeks
Description: Rats were implanted with Ward carcinoma tumors and were treated with one of the following regimens after their tumors grew to 3,000 mg in weight as previously described (Cao et al., Cancer Res 90:1507-1510, 1993). Rats bearing 3,000 mg of tumor mass were dosed at Day 0, Day 7, and Day 14 with the following treatments.
Group A rats received no treatment. Group B rats were intraperitoneally (ip) dosed with 1 mg/kg eniluracil (time (t)=0) followed by intravenous (iv) 5 mg/kg 5-FU at t=60. Group C rats were dosed ip with 1 mg/kg eniluracil (t=0) followed by 25 mg/kg eniluracil ip at t=55 minutes and by 5 mg/kg 5-FU iv at t=60 minutes. Animals were dosed once per week for three weeks. Eniluracil was also dosed ip at 1 mg/kg to rats in Groups B & C on Days 2 and 3 of each weekly treatment. The treatment for Group C mimicked the clinical trials where high levels of eniluracil were present when 5-FU was dosed.

[5] = cited from earlier work; remark: listed apart in the source
HEK 293 cells [6] = experiment: Cytotoxicity of 5-FU, MTS proliferation assay; format: cell-based; conditions: Homo sapiens
Description: as §1

C#Cc1c[nH]c(=O)[nH]c1=O [eniluracil, 5-Ethynyluracil]
Level of DPD, % of the predose level (DPD; 24 hours after one dose of eniluracil): 3% | DPD eliminated (DPD; dose of 0.74 mg/m^2 (about 1 mg total), for prolonged periods): greater than 90% | Plasma uridine levels [1]: increase in uridine levels | Elimination half-life for eniluracil ([2]; humans): about 3.5 hours | Tolerability in the EpiDerm skin model ([3]; 1000, 500 and 100 μM, topical exposures of up to 24 hours): well-tolerated | ET50 ([3]; eniluracil 100 uM): >24 h | ET50 ([3]; eniluracil 500 uM): >24 h | ET50 ([3]; eniluracil 1000 uM): >24 h | Increase in [6-14C]-FUMP formation versus [6-14C]-5-FU treatment alone (HEK 293 cells [4]): 70% | Increase in [6-14C]-FUMP formation versus eniluracil and [6-14C]-5-FU co-administration (HEK 293 cells [4]): 41% | Effect of excess eniluracil on antitumor activity of 5-FU (Ward carcinoma tumors; Group C (extra 25 mg/kg eniluracil at 55 min) versus Group B): greatly diminished | 5-FU-associated hand-foot syndrome toxicity ([5]; Phase II and Phase III trials, oral eniluracil with 5-FU): abrogated | Toxicity in Phase I clinical trials ([5]; cancer patients, eniluracil eliminating DPD activity): without causing toxicity | Antitumor activity versus standard 5-FU regimen without eniluracil ([5]; two Phase III studies, 28-day eniluracil and 5-FU regimen, colorectal cancer): less antitumor activity

O=c1[nH]cc(F)c(=O)[nH]1 [5-FU, 5-Fluorouracil]
Half-life of 5-FU ([2]; cancer patients, after 3.7 mg/m^2 eniluracil): 4.5 h | Elimination half-life of 5-FU ([2]; cancer patients, after one dose of eniluracil): 3.5 h | Elimination half-life of 5-FU ([2]; cancer patients, without eniluracil): about 10 minutes | Ward carcinoma tumor response (Ward carcinoma tumors; Group B: eniluracil 1 mg/kg ip t=0, 5-FU 5 mg/kg iv t=60 min): rapidly eliminated | Ward carcinoma tumor response (Ward carcinoma tumors; Group C: eniluracil 1 mg/kg ip t=0, eniluracil 25 mg/kg ip t=55 min, 5-FU 5 mg/kg iv t=60 min): decreased only slightly in size | EC50 (HEK 293 cells [6]; HEK293, 72 h, read-out: EC50 of 5-FU (mean ±SE), 72 hours, 5-FU treatment alone): 311 nM | EC50 (HEK 293 cells [6]; HEK293, read-out: EC50 of 5-FU (mean ±SE), 72 hours, after 1 hour eniluracil (5 μM) pre-treatment): 264 nM | EC50 (HEK 293 cells [6]; HEK293, read-out: EC50 of 5-FU (mean ±SE), 72 hours, eniluracil (5 μM) co-administered without preincubation): 308 nM
